Experiments:
PLK1 = PLK1 (Homo sapiens, UniProt P53350); test: PLK1 activity (known assay); format: biochemical
Procedure: (§1) The Wee1 pCDK1 and PLK1 activities were determined using known assays.

Wee1 = Wee1 (Homo sapiens, UniProt P30291); test: Wee1 pCDK1 activity (known assay); format: cell-based
Procedure: as §1

Chain of Wee1 (P30291 whole entry, species assumed): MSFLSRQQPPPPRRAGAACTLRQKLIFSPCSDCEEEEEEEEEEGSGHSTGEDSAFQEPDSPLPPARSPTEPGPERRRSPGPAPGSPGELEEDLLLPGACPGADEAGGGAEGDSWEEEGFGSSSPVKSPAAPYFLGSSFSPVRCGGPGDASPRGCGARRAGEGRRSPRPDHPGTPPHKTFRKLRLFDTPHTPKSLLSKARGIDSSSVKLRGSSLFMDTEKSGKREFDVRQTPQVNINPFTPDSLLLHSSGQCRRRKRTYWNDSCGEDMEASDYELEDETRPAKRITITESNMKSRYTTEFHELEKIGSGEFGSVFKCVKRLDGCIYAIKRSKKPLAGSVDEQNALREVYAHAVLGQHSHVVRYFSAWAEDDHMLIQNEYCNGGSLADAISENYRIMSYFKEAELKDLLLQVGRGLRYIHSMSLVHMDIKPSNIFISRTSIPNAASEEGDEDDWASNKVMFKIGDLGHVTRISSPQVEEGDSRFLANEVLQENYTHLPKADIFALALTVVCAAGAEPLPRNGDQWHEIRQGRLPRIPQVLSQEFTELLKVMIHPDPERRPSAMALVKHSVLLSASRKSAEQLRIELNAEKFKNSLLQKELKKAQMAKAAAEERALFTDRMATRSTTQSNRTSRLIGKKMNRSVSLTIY
Chain of PLK1 (P53350 whole entry, species assumed): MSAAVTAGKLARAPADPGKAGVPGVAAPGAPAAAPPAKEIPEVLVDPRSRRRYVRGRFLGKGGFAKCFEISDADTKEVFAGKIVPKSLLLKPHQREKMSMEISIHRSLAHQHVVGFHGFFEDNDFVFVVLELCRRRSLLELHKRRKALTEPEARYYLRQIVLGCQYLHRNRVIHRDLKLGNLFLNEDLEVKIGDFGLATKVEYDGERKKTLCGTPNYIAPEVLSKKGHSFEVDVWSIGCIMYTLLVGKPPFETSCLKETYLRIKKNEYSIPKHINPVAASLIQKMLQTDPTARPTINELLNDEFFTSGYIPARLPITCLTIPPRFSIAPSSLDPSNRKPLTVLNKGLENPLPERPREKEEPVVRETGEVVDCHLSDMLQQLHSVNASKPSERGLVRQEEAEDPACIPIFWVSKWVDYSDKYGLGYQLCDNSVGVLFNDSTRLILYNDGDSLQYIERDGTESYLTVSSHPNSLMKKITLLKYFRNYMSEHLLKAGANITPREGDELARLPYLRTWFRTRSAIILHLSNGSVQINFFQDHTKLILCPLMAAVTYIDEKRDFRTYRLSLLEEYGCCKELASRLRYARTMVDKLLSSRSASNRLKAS

Work on `CCC1(O)CCc2ccc(Nc3nc(Nc4ccc5c(c4)CN(C)CC54CC4)ncc3C#N)nc21` (stereo not shown) [Example 56, 4-[(7-ethyl-7-hydroxy-5,6-dihydrocyclopenta[b]pyridin-2-yl)amino]-2-[(2-methylspiro[1,3-dihydroisoquinoline-4,1′-cyclopropane]-7-yl)amino]pyrimidine-5-carbonitrile] yielded an IC50 (PLK1) of 100 to 250 nM and an IC50 (Wee1) of 100 to 250 nM.

For `C[C@H]1CN(C)CCN1c1ccc(Nc2ncc(C#N)c(Nc3cccc(N4CCCC4=O)n3)n2)cc1` [Example 65, 4-[[6-(2-oxopyrrolidin-1-yl)-2-pyridyl]amino]-2-[4-[(2S)-2,4-dimethylpiperazin-1-yl]anilino]pyrimidine-5-carbonitrile], the IC50 (PLK1) was greater than 1000 nM and the IC50 (Wee1) was 100 to 250 nM.

`CN1CCN(c2ccc(Nc3ncc(C#N)c(Nc4cccc(N5CCCC5=O)n4)n3)cc2)CC1` [Example 5, 2-[4-(4-methylpiperazin-1-yl)anilino]-4-[[6-(2-oxopyrrolidin-1-yl)-2-pyridyl]amino]pyrimidine-5-carbonitrile] was tested, and the IC50 (PLK1) was 250 to 500 nM and the IC50 (Wee1) was 100 to 250 nM.

`CCC1(O)CCc2ccc(Nc3nc(Nc4ccc5c(c4)CCN(C)C5(C)C)ncc3C#N)nc21` (stereo not shown) [Example 26, 4-[(7-ethyl-7-hydroxy-5,6-dihydrocyclopenta[b]pyridin-2-yl)amino]-2-[(1,1,2-trimethyl-3,4-dihydroisoquinolin-6-yl)amino]pyrimidine-5-carbonitrile] gave an IC50 (PLK1) greater than 1000 nM and an IC50 (Wee1) of no more than 100 nM.

With `CN1CCc2cc(Nc3ncc(C#N)c(Nc4cccc(N5CCCC5=O)n4)n3)cc(Cl)c2C1` [Example 76, 2-[(8-chloro-2-methyl-3,4-dihydro-1H-isoquinolin-6-yl)amino]-4-[[6-(2-oxopyrrolidin-1-yl)-2-pyridyl]amino]pyrimidine-5-carbonitrile] the IC50 (PLK1) was greater than 1000 nM and the IC50 (Wee1) was 500 to 1000 nM.

Compound `CCC1(O)CCc2ccc(Nc3nc(Nc4ccc5c(c4)CCN(C)C5)ncc3C#N)nc21` (stereo not shown) [Example 46, 4-[(7-ethyl-7-hydroxy-5,6-dihydrocyclopenta[b]pyridin-2-yl)amino]-2-[(2-methyl-3,4-dihydro-1H-isoquinolin-6-yl)amino]pyrimidine-5-carbonitrile] has an IC50 (PLK1) of 250 to 500 nM and an IC50 (Wee1) of 100 to 250 nM.

For `CCC1(O)CCc2ccc(Nc3nc(Nc4cc(C)c(C5CCN(C)CC5)c(F)c4)ncc3C#N)nc21` (stereo not shown) [Example 41, 4-[(7-ethyl-7-hydroxy-5,6-dihydrocyclopenta[b]pyridin-2-yl)amino]-2-[3-fluoro-5-methyl-4-(1-methyl-4-piperidyl)anilino]pyrimidine-5-carbonitrile], the IC50 (PLK1) was 250 to 500 nM and the IC50 (Wee1) was 100 to 250 nM.

`COCc1cc(Nc2ncc(C#N)c(Nc3cccc(N4CCCC4=O)n3)n2)ccc1C1CCN(C)CC1` [Example 63, 2-[3-(methoxymethyl)-4-(1-methyl-4-piperidyl)anilino]-4-[[6-(2-oxopyrrolidin-1-yl)-2-pyridyl]amino]pyrimidine-5-carbonitrile] showed an IC50 (PLK1) greater than 1000 nM and an IC50 (Wee1) of 500 to 1000 nM.

Work on `CCC1(O)CCc2ccc(Nc3nc(Nc4cc(C)c5c(c4)CN(C)CC5)ncc3C#N)nc21` (stereo not shown) [Example 49, 2-[(2,5-dimethyl-3,4-dihydro-1H-isoquinolin-7-yl)amino]-4-[(7-ethyl-7-hydroxy-5,6-dihydrocyclopenta[b]pyridin-2-yl)amino]pyrimidine-5-carbonitrile] yielded an IC50 (PLK1) of no more than 100 nM and an IC50 (Wee1) of no more than 100 nM.

In the case of `CCC1(O)CCc2ccc(Nc3nc(Nc4ccc(N5CC6CCC(C5)N6C)cc4)ncc3C#N)nc21` (stereo not shown) [Example 35, 4-[(7-ethyl-7-hydroxy-5,6-dihydrocyclopenta[b]pyridin-2-yl)amino]-2-[4-(8-methyl-3,8-diazabicyclo[3.2.1]octan-3-yl)anilino]pyrimidine-5-carbonitrile], the IC50 (PLK1) is reported as no more than 100 nM and the IC50 (Wee1) is reported as 100 to 250 nM.

In the case of `CCC1(O)CCc2ccc(Nc3nc(Nc4ccc5c(c4)CNCC5(C)C)ncc3C#N)nc21` (stereo not shown) [Example 30, 2-[(4,4-dimethyl-2,3-dihydro-1H-isoquinolin-7-yl)amino]-4-[(7-ethyl-7-hydroxy-5,6-dihydrocyclopenta[b]pyridin-2-yl)amino]pyrimidine-5-carbonitrile], the IC50 (PLK1) is reported as greater than 1000 nM and the IC50 (Wee1) is reported as 250 to 500 nM.

In the case of `CCC1(O)CCc2ccc(Nc3nc(Nc4ccc(N5CCN(C(C)=O)C6(CC6)C5)cc4)ncc3C#N)nc21` (stereo not shown) [Example 54, 2-[4-(4-acetyl-4,7-diazaspiro[2.5]octan-7-yl)anilino]-4-[(7-ethyl-7-hydroxy-5,6-dihydrocyclopenta[b]pyridin-2-yl)amino]pyrimidine-5-carbonitrile], the IC50 (PLK1) is reported as no more than 100 nM and the IC50 (Wee1) is reported as 250 to 500 nM.

Work on `CCC1(O)CCc2ccc(Nc3nc(Nc4ccc(C5CCN(C)CC5)c(Cl)c4)ncc3C#N)nc21` (stereo not shown) [Example 42, 2-[3-chloro-4-(1-methyl-4-piperidyl)anilino]-4-[(7-ethyl-7-hydroxy-5,6-dihydrocyclopenta[b]pyridin-2-yl)amino]pyrimidine-5-carbonitrile] yielded an IC50 (PLK1) of 100 to 250 nM and an IC50 (Wee1) of 250 to 500 nM.

In the case of `CCC1(O)CCc2ccc(Nc3nc(Nc4ccc(C5CCN(C)CC5)c(F)c4)ncc3C#N)nc21` (stereo not shown) [Example 43, 4-[(7-ethyl-7-hydroxy-5,6-dihydrocyclopenta[b]pyridin-2-yl)amino]-2-[3-fluoro-4-(1-methyl-4-piperidyl)anilino]pyrimidine-5-carbonitrile], the IC50 (PLK1) is reported as 250 to 500 nM and the IC50 (Wee1) is reported as 250 to 500 nM.

`CN1CCc2cc(Nc3ncc(C#N)c(Nc4cccc(N5CCOC5=O)n4)n3)ccc2C1` [Example 12, 2-[(2-methyl-3,4-dihydro-1H-isoquinolin-6-yl)amino]-4-[[6-(2-oxooxazolidin-3-yl)-2-pyridyl]amino]pyrimidine-5-carbonitrile] was tested, and the IC50 (PLK1) was greater than 1000 nM and the IC50 (Wee1) was no more than 100 nM.

Compound `C[C@H]1CN(C)CCN1c1ccc(Nc2ncc(C#N)c(Nc3cccc(N4CCOC4=O)n3)n2)cc1` [Example 9, 4-[[6-(2-oxooxazolidin-3-yl)-2-pyridyl]amino]-2-[4-[(2S)-2,4-dimethylpiperazin-1-yl]anilino]pyrimidine-5-carbonitrile] has an IC50 (PLK1) greater than 1000 nM and an IC50 (Wee1) of 100 to 250 nM.

With `CCC1(O)CCc2ccc(Nc3nc(Nc4ccc(N5C[C@@H](C)N(C)[C@@H](C)C5)cc4)ncc3C#N)nc21` (mixture of isomers) [Example 53, 4-[(7-ethyl-7-hydroxy-5,6-dihydrocyclopenta[b]pyridin-2-yl)amino]-2-[4-[rac-(3R,5S)-3,4,5-trimethylpiperazin-1-yl]anilino]pyrimidine-5-carbonitrile] the IC50 (PLK1) was no more than 100 nM and the IC50 (Wee1) was 100 to 250 nM.

Reference: US20240228459A1 (Boundless Bio, Inc., priority 2022, published 2024)
